We go through 21 compounds from patent publication US6407248B1, “α-unsaturated amines, their production and use” (Takeda Chemical Industries, Ltd., priority 1987, dated 2002).

SMILES strings stand for the structures.

System in the first series: not given
Assay: not given
Details: not given
The melting point is the temperature of the solid-liquid transition. The compound `CSC(=C[N+](=O)[O-])NCc1cccnc1` displayed a melting point of 129 to 130 °C.
For `O=[N+]([O-])C=C(NCc1cccnc1)NCc1cccnc1`, the melting point was in the range of 141 to 143 °C.
Regarding `NC(=C[N+](=O)[O-])NCc1cccnc1`, the melting point was 177 to 178 °C (dec.).
The compound `CCCSCCNC(=C[N+](=O)[O-])NCc1cccnc1` yielded a melting point of 93 to 94 °C.
For the compound `O=[N+]([O-])C=C(NCCO)NCc1cccnc1`, the melting point fell in the range of 161 to 163 °C.
Take `COC(CNC(=C[N+](=O)[O-])NCc1cccnc1)OC`: the melting point was 96 to 98 °C.
For `O=[N+]([O-])C=C(NCc1cccnc1)NCC(F)(F)F`, the melting point was in the range of 164 to 165 °C.
In turn, `O=[N+]([O-])C=C(NCc1cccnc1)N1CCOCC1` registered a melting point of 102 to 103 °C.
Still for that read-out and setting: as for `CC(C)NC(=C[N+](=O)[O-])NCc1cccnc1`, the figure is 148 to 150 °C.
On to `CCCCNC(=C[N+](=O)[O-])NCc1cccnc1`, for which the melting point is 110 to 112 °C.
Same read-out and setting: with `CCCCCNC(=C[N+](=O)[O-])NCc1cccnc1` the figure was 97 to 98 °C; with `O=[N+]([O-])C=C(NCc1cccnc1)Nc1ccccc1`, 217 to 218 °C.

The test system of a further series is Brown Planthoppers (Nilaparvata lugens). As to the kind of experiment: Effect against brown planthoppers (foliar spray on rice seedlings). Type of series: in vivo. As to conditions: Nilaparvata lugens, foliar, 168 h, read-out: % Mortality after 7 days. Here is the method:
Effect Against Brown Planthoppers (Nilaparvata lugens)
An emulsifiable concentrate of the compound of the invention, prepared in the same manner as Example 112 below, was diluted with water to a concentration of 500 ppm and sprayed over the stems and leaves of rice seedlings in the 2-leaf stage at the rate of 10 ml per paper pot. Water was put in test tubes and the treated rice seedlings were placed therein. Then, 10 brown planthopper larvae were released in each tube, which was then capped with an aluminum cap. The test tubes were maintained in an incubator at 25° C. and the dead insects were counted 7 days after release. The % mortality was calculated using the following formula. [formula]
Broadly, the mortality is the share of the test organisms that died. In the case of `CCN(Cc1cnc(Cl)s1)C(=C[N+](=O)[O-])N(C)C=O` [Compound 122, 1-[N-(2-Chloro-5-thiazolylmethyl)-N-ethyl) amino-1-(N-formyl-N-methyl)amino-2-nitroethylene], the mortality at 500 µg/mL was 100%.
Take `CNC(=C[N+](=O)[O-])N(C=O)Cc1cnc(Cl)s1` [Compound 124, 1-[N-(2-chloro-5-thiazolylmethyl)-N-formyl]amino-1-methylamino-2-nitroethylene]: the mortality at 500 µg/mL was 100%.
Turning to `CN(C=O)C(=C[N+](=O)[O-])N(C)Cc1ccc(Br)nc1` [Compound 125, 1-[N-(6-Bromo-3-pyridylmethyl)-N-methyl]amino-1-(N-formyl-N-methyl)amino-2-nitroethylene], the mortality at 500 µg/mL was 100%.
With `CCN(Cc1ccc(Br)nc1)C(=C[N+](=O)[O-])N(C)C=O` [Compound 126, 1-[N-(6-Bromo-3-pyridylmethyl)-N-ethyl]amino-1-(N-formyl-N-methyl)amino-2-nitroethylene], the mortality at 500 µg/mL came out at 100%.
Take `CN(C)C(=C[N+](=O)[O-])NCc1ccc(Br)nc1` [Compound 127, 1-N-(6-Bromo-3-pyridylmethyl)amino-1-dimethylamino-2-nitroethylene]: the mortality at 500 µg/mL was determined as 100%.
On to `CN(C)C(=C[N+](=O)[O-])N(C=O)Cc1ccc(Br)nc1` [Compound 128, 1-[N-(6-Bromo-3-pyridylmethyl)-N-formyl]amino-1-dimethylamino-2-nitroethylene], for which the mortality at 500 µg/mL is 100%.
As for `CN(Cc1ccc(Br)nc1)C(N)=C[N+](=O)[O-]` [Compound 129, 1-Amino-1-[N-(6-bromo-3-pyridylmethyl)-N-methyl]amino-2-nitroethylene], the mortality at 500 µg/mL stood at 100%.
As for `CN(C)C(=C[N+](=O)[O-])N(C=O)Cc1cnc(Cl)s1` [Compound 130, 1-[N-(2-Chloro-5-thiazolylmethyl)-N-formyl]amino-1-dimethylamino-2-nitroethylene], the mortality at 500 µg/mL came out at 100%.
With `CNC(=C[N+](=O)[O-])N(Cc1ccc(Cl)nc1)CC(F)(F)F` [Compound 131, 1-[N-(6-Chloro-3-pyridylmethyl)-N-(2,2,2-trifluoroethyl)]amino-1-methylamino-2-nitroethylene], the mortality at 500 µg/mL was found to be 100%.
